Results: patent publication US20100311965A1, “2-AMINOQUINAZOLINE DERIVATIVE” (CARNA BIOSCIENCES INC., priority 2007, published 2010)

target: T1, Flt3 kinase (Homo sapiens, UniProt P36888); test: Kinase activity, mobility shift assay (MSA), Flt3; type: biochemical; conditions: at 0.01 μM; read-out: inhibitory activity against Flt3 kinase
T1 construct: purchased Carna Biosciences Inc. (Kobe) 08-154
T1 sequence (P36888 27-993): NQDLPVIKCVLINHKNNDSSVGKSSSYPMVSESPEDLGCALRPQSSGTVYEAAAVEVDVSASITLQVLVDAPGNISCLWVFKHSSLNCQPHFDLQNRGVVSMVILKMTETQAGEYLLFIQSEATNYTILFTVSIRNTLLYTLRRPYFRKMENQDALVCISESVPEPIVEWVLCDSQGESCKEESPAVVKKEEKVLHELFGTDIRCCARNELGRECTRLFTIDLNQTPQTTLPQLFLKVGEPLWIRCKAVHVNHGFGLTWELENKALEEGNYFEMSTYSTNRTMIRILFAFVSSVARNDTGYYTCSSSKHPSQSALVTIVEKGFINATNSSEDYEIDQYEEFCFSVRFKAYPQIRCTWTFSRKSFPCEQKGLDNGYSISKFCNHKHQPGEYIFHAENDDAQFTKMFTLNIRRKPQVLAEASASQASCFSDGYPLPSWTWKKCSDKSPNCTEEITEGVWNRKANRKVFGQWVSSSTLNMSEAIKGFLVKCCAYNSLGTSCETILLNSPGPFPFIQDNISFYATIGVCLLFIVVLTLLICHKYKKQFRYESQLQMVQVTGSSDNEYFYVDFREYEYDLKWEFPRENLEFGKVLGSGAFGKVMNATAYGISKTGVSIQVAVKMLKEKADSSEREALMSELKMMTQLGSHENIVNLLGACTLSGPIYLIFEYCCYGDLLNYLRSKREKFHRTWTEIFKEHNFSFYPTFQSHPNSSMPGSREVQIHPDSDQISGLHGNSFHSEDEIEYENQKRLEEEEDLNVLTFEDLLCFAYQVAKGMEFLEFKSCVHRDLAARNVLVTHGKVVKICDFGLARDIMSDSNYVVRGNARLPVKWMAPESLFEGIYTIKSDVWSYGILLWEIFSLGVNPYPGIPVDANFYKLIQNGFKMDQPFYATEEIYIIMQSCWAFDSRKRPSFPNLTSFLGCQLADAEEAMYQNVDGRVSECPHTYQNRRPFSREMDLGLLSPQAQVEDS
Procedure: (§1) A test compound was dissolved in DMSO to obtain a 10 mM test compound solution, which was stored in a dark place at −20° C. until measurement. When bioactivity (kinase activity) is measured, a test compound solution is diluted with DMSO so that the concentration becomes 100 times higher than […], and then diluted 25 times (DMSO concentration is 4%) with an assay buffer described hereinafter.
(§2) Products manufactured by Carna Biosciences Inc. (Kobe) used as protein kinases (recombinant human kinases) in the test are as follows:
(§3) SYK (product number: 08-176), JAK3 (product number: 08-046), FLT3 (product number: 08-154), PDGFRα (PDGFRA) (product number: 08-157), TRKA (NTRK1) (product number: 08-186), KDR (product number: 08-191), CDK2/cycA (product number: 04-103), and AurA (AURKA) (product number: 05-101).
(§4) Kinase activity was measured by a mobility shift assay (MSA) method using QuickScout Screening Assist™ MSA (commercially available kit, manufactured by Carna Biosciences Inc.)
(§5) 5 μl of a test compound solution (the concentration is 4 times of the final concentration) dissolved or suspended in an assay buffer [20 mM HEPES, 0.01% Triton™ X-100, 1 mM dithiothreitol, pH 7.5] or 5 μl of a solvent (4% DMSO-assay buffer) was charged in a 384 well plate made of polypropylene (product number 781280, manufactured by Greiner Bio-One Co., Ltd.). Then, 5 μl of ATP/substrate/metal solution of QuickScout Screening Assist MSA was added. Furthermore, 10 μl of a kinase solution diluted with assay buffer was added and the reaction was initiated. However, only assay buffer (10 μl) was added to blank. The concentration of kinase and reaction conditions were controlled in accordance with the protocol of QuickScout Screening Assist MSA. Then, the reaction was terminated by adding 60 μl of termination buffer of QuickScout Screening Assist MSA and the amount of a substrate (S) and a phosphorylated substrate (P) in the reaction solution were determined in accordance with the protocol of QuickScout Screening Assist MSA using LabChip3000 (manufactured by Caliper Life Sciences Co., MA, USA), and also inhibition of the test compound at a concentration of 0.01, 0.1 and 1 μM was measured, respectively. The amounts of S and P were expressed by the height of each separated peak. Inhibition (%) of the test compound was calculated in accordance with the following equation:
(§6) Inhibition (%)=(1−(C−A)/(B−A))×100
(§7) where A denotes blank, B denotes a solvent and C denotes P/(P+S) of a well of the compound.

| inhibition at 0.01 µM [%] | SMILES |
| --- | --- |
| ≥ 50 | Cc1cccc2cnc(Nc3ccc4c(c3)NC(=O)CO4)nc12 [Example 8, 6-(8-methylquinazolin-2-ylamino)-2H-benzo[b][1,4]oxazin-3(4H)-one] |
| ≥ 50 | CC(=O)Nc1cccc(Nc2ncc3cccc(C)c3n2)c1 [Example 11, N-(3-(8-methylquinazolin-2-ylamino)phenyl)acetamide] |
| ≥ 50 | Clc1cccc2cnc(Nc3ccc4cn[nH]c4c3)nc12 [Example 32, 8-chloro-N-(1H-indazol-6-yl)quinazoline-2-amine] |

same assay, conditions: at 0.1 μM; read-out: inhibitory activity against Flt3 kinase

| inhibition at 0.1 µM [%] | SMILES |
| --- | --- |
| ≥ 50 | Cc1cccc2cnc(Nc3ccc4c(c3)OCO4)nc12 [Example 6, N-(benzo[d][1,3]dioxol-5-yl)-8-methylquinazoline-2-amine] |
| ≥ 50 | Cc1cccc2cnc(Nc3ccc4c(c3)OCCO4)nc12 [Example 7, N-(2,3-dihydrobenzo[b][1,4]dioxin-6-yl)-8-methylquinazoline-2-amine] |

target: T2, Syk kinase (Homo sapiens, UniProt P43405); test: Kinase activity, mobility shift assay (MSA), Syk; type: biochemical; conditions: read-out: inhibitory activity against Syk kinase
T2 construct: purchased Carna Biosciences Inc. (Kobe) 08-176
Procedure: as §1, §2, §3, §4, §5, §6, §7

| SMILES | inhibition at 0.1 µM [%] |
| --- | --- |
| Cc1cccc2cnc(Nc3ccc4cn[nH]c4c3)nc12 [Example 1, N-(1H-indazol-6-yl)-8-methylquinazoline-2-amine] | ≥ 50 |
| Cc1cccc2cnc(Nc3ccc4[nH]nnc4c3)nc12 [Example 2, N-(1H-benzo[d][1,2,3]triazol-5-yl)-8-methylquinazoline-2-amine] | ≥ 50 |
| Cc1ccc(Nc2ncc3cccc(C)c3n2)cc1O [Example 29, 5-(8-methylquinazolin-2-ylamino)-2-methylphenol] | ≥ 50 |
| Cc1n[nH]c2cc(Nc3ncc4cccc(C)c4n3)ccc12 [Example 34, 8-methyl-N-(3-methyl-1H-indazol-6-yl)-quinazoline-2-amine] | ≥ 50 |
| Cc1cc(Nc2ncc3cccc(C)c3n2)cc2[nH]ncc12 [Example 37, 8-methyl-N-(4-methyl-1H-indazol-6-yl)-quinazoline-2-amine] | ≥ 50 |
| Cc1c(O)ccc2cnc(Nc3ccc4cn[nH]c4c3)nc12 [Example 48, 7-hydroxy-N-(1H-indazol-6-yl)-8-methylquinazoline-2-amine] | ≥ 50 |
| Cc1cccc2cnc(Nc3cc(N)c4cn[nH]c4c3)nc12 [Example 52, 8-methyl-N-(4-amino-1H-indazol-6-yl)quinazoline-2-amine] | ≥ 50 |

More lines, now with the values ahead:

| inhibition at 0.1 µM [%] | SMILES |
| --- | --- |
| ≥ 50 | Cc1c(NCCO)ccc2cnc(Nc3ccc4cn[nH]c4c3)nc12 [Example 73, 2-[2-(1H-indazol-6-ylamino)-8-methylquinazolin-7-ylamino]ethanol] |
| ≥ 50 | Cc1c(N)ccc2cnc(Nc3ccc4cn[nH]c4c3)nc12 [Example 74, 7-amino-N-(1H-indazol-6-yl)-8-methylquinazoline-2-amine] |
| ≥ 50 | Cc1c(N2CCC(CO)CC2)ccc2cnc(Nc3ccc4cn[nH]c4c3)nc12 [Example 84, {1-[2-(1H-indazol-6-ylamino)-8-methylquinazolin-7-yl]piperidin-4-yl}methanol] |
| ≥ 50 | Cc1n[nH]c2cc(Nc3ncc4ccc(N5CCC(CO)CC5)c(C)c4n3)ccc12 [Example 94, {1-[2-(3-methyl-1H-indazol-6-ylamino)-8-methylquinazolin-7-yl]piperidin-4-yl}methanol] |
| ≥ 50 | COc1ccc2cnc(Nc3ccc4c(C)n[nH]c4c3)nc2c1C [Example 96, N-(3-methyl-1H-indazol-6-yl)-7-methoxy-8-methylquinazoline-2-amine] |
| ≥ 50 | COc1ccc2cnc(Nc3cc(C)c4cn[nH]c4c3)nc2c1C [Example 97, N-(4-methyl-1H-indazol-6-yl)-7-methoxy-8-methylquinazoline-2-amine] |
| ≥ 50 | Cc1cccc2cnc(Nc3cc(NC(=O)NCCO)c4cn[nH]c4c3)nc12 [Example 98, 1-(2-hydroxyethyl)-3-[6-(8-methylquinazolin-2-ylamino)-1H-indazol-4-yl]urea] |
| ≥ 50 | Cc1c(F)ccc2cnc(Nc3cc(N)c4cn[nH]c4c3)nc12 [Example 99, 7-fluoro-N-(4-amino-1H-indazol-6-yl)-8-methylquinazoline-2-amine] |
| ≥ 50 | Cc1c(N2CCC(CO)CC2)ccc2cnc(Nc3cc(N)c4cn[nH]c4c3)nc12 [Example 101, {1-[2-(4-amino-1H-indazol-6-ylamino)-8-methylquinazolin-7-yl]piperidin-4-yl}methanol] |
| ≥ 50 | COc1ccc2cnc(Nc3cc(N)c4cn[nH]c4c3)nc2c1C [Example 102, N-(4-amino-1H-indazol-6-yl)-7-methoxy-8-methylquinazoline-2-amine] |
| ≥ 50 | Cc1cc(Nc2ncc3ccc(NCCO)c(C)c3n2)cc2[nH]ncc12 [Example 109, 2-[2-(4-methyl-1H-indazol-6-ylamino)-8-methylquinazolin-7-ylamino]ethanol] |
| ≥ 50 | Cc1c(F)ccc2cnc(Nc3cc(N)c4nc[nH]c4c3)nc12 [Example 123, 7-fluoro-8-methyl-N-(4-amino-1H-benzo[d]imidazol-6-yl)quinazoline-2-amine] |
| ≥ 50 | Cc1c(NCCO)ccc2cnc(Nc3cc(N)c4cn[nH]c4c3)nc12 [Example 124] |

tested on: Rat basophilic cells RBL-2H3; test: Action against IgE-induced degranulation (β-hexosaminidase release); type: cell-based; conditions: RBL-2H3 cells, anti-DNP-IgE / DNP-BSA, read-out: inhibitory activity against IgE-induced degranulation
Procedure: An inhibitory action against SYK was evaluated by an inhibitory action against degranulation of basophils induced by IgE. Rat basophilic cells RBL-2H3 were incubated with an anti-DNP-IgE antibody (1 μg/mL, Zymed) overnight. After washing cells twice with HBSS, an antigen DNP-BSA (1 μg/mL, LSL) was added, followed by incubation for 30 minutes. The supernatant was taken and an activity of β-hexosaminidase in the solution isolated by degranulation was measured using p-nitrophenyl-N-β-D-glucosaminide as a substrate. Using an absorbance meter (Spectra MAX Pro, Molecular Devices), each absorbance at 405 nm and 570 nm of the solution was measured and an increase in the amount was taken as an enzyme activity. 10 minutes before the addition of an antigen, a test material and a solvent (0.1% DMSO) were added to cells. Inhibition rate (%) against degranulation was calculated by the following equation.
Inhibition rate (%)=(1−(A−C)/(B−C))×100
where A denotes an increase in absorbance of a test material group, B denotes an increase in absorbance of a solvent group, and C denotes an increase in absorbance of a solvent group which is not stimulated by an antigen.

| SMILES | inhibition at 0.05 µM [%] |
| --- | --- |
| Cc1c(N2CCN(C)CC2)ccc2cnc(Nc3ccc4cn[nH]c4c3)nc12 [Example 63, N-(1H-indazol-6-yl)-8-methyl-7-(4-methylpiperazin-1-yl)quinazoline-2-amine] | ≥ 50 |
| CCNC(=O)n1ncc2c(N)cc(Nc3ncc4cccc(C)c4n3)cc21 [Example 79, 4-amino-N-ethyl-6-(8-methylquinazolin-2-ylamino)-1H-indazole-1-carboxamide] | ≥ 50 |
| CCOC(=O)NCc1cc(Nc2ncc3cccc(C)c3n2)cc2[nH]ncc12 [Example 80, Ethyl [6-(8-methylquinazolin-2-ylamino)-1H-indazol-4-yl]methylcarbamate] | ≥ 50 |
